For data set [1] the following is noted: cited from earlier work; for Maximum particle energy: beta particles.
For data set [2] the following is noted: for Formation of a precipitate: 1 mL calcium chloride solution (50 mM) added to 10 mL of 100 mM phosphate solution.

Like-named read-outs stand apart in the source and are kept apart here.

Regarding `[103Pd]` [palladium-103], in data set [1] (electron capture emitters), the Half-life was 17 days and the Particle energy is on record as 0.05 MeV. For the molecule `[103Ru]` [ruthenium-103], the Half-life in data set [1] (beta emitters) is given as 40 days. In addition, the Maximum particle energy in data set [1] is recorded as 0.214 MeV. In the case of `[125IH]` [iodine-125], in data set [1] (electron capture emitters), the Half-life is recorded as 60 days and the Particle energy is 0.035 MeV. With `O=P([O-])([O-])O.[Na+].[Na+]` [disodium hydrogen phosphate], the “Formation of a precipitate” value in data set [2] was “heavy visible precipitate”. Take `[89Sr]` [strontium-89]: in data set [1] (beta emitters), the Half-life is on record as 51 days. Further, the Maximum particle energy in data set [1] is reported as 1.46 MeV. Take phosphorus-32: in data set [1] (beta emitters), the Half-life result is listed as “approximately 14 days”. Besides, the Maximum particle energy in data set [1] is on record as 1.71 MeV. Take `[153Sm]` [samarium-153]: the Half-life in data set [1] (beta emitters) was 1.96 days. Moreover, in data set [1], the Maximum particle energy is on record as 0.7 (>50%) MeV. Regarding `O=P([O-])(O)O.[Na+]` [sodium dihydrogen phosphate], the “Formation of a precipitate” value in data set [2] is “no precipitate was formed”. The “Amount of precipitate formed as a function of sodium hydroxide (0.05 M) added” value in data set [2] (50 mL sodium dihydrogen phosphate (100 mM) and 5 mL calcium chloride (50 mM)) is listed as “a precipitate of calcium phosphate begins to form”. With `[131IH]` [iodine-131], the Half-life in data set [1] (beta emitters) is 8.04 days. The Maximum particle energy in data set [1] is 0.61 MeV. On to `[90Y]` [yttrium-90], for which the Half-life in data set [1] (beta emitters) was 2.68 days. Besides, the Maximum particle energy in data set [1] is recorded as 2.27 MeV.
